One data set has as its system tubercular bacteria. Particulars: tests in vitro; cited from earlier work.
The format of data set [1] is physicochemical.
Protocol: The acceleration of the isomerization in accordance with the present invention is particularly striking at pH values of between 4 and 8. […] For the characterization of this acceleration of the conversion of humulone to isohumulone, reaction-kinetic experiments at different temperatures are shown in the accompanying figures. As reaction media there is used an 0.1 and 0.025 molar sodium acetate solution to which there are added in each case the metal salts in concentrations of 10^^-3 mol/liter and 10^^-4 mol/liter, respectively. Furthermore, pure metal salt solutions of higher concentration (0.025 mol/liter) (FIG. 2) of different pH were also used for the conversion of the humulone.
By way of comparison, the slow isomerization reaction in pure phosphate buffers is also recorded. It should be emphasized that the sodium acetate in the reaction solutions is not necessary for the reaction itself, but merely serves to maintain the pH constant. […] For FIGS. 1 and 2, the logarithm of the humulone extinction measured in a spectral photometer was plotted against the reaction time (in accordance with the law of Lambert and Beer, the extinction is directly proportional to the concentration).

Read-outs that look alike come from different tables or passages of the source.

For `CC(C)=CCC(=O)C1(O)C(O)=C(C(=O)CC(C)C)C(=O)C1CC=C(C)C` (stereo not drawn) [isohumulone], the “activity compared with Conteben” value with tubercular bacteria is “practically just as active as Conteben”.

humulone: the Half-Life about (bacl2 solution, pH 6.9) is approximately 9 min; the Half-Life about (cacl2 solution, pH 6.6) is approximately 2 min; the Half-Life about (cecl3 solution, pH 4.2) was approximately 10 min; the Half-Life about (niso4 solution, pH 4.7) is approximately 0.7 min; the Half-Life about (phosphate buffer, pH 5.5) was approximately 100 min; the Half-Life about (phosphate buffer, pH 7.2) is approximately 100 min. Also, the Half-Life in data set [1] (acetate buffer + cacl2, pH 8) is 22 min; in data set [1] (acetate buffer + cdcl2, pH 7), 5.9 min; in data set [1] (acetate buffer + mgcl2, pH 7.5) it was 7.3 min; in data set [1] (acetate buffer + mgcl2, pH 8), 2.6 min; in data set [1] (acetate buffer + mncl2, pH 7.5), 3.2 min; in data set [1] (acetate buffer + niso4, pH 6.5), 2.5 min. Also, the Half-Life in data set [1] (acetate buffer, pH 7) was determined as 360 min; in data set [1] (phosphate buffer, pH 5.5), 120 min.
